This assay concerns the target SHP2 (Homo sapiens (Human), UniProt Q06124). Description: SHP2 allosteric inhibition assay (DiFMUP substrate, bisphos-IRS1 peptide activation). The format is biochemical. The settings on record: 0.33 nM SHP2, 0.5 μM bisphos-IRS1 peptide, 100 uM DiFMUP, room temperature. On the procedure: At the basal state, SHP2 is auto-inhibited and access of substrates to the catalytic site is blocked by the […] interactions between the SH2 domains and the PTP domain. When bis-tyrosyl-phosphorylated peptides bind to SH2 domain of SHP2, the PTP domain becomes available for substrate recognition and reaction catalysis and SHP2 is allosterically activated. SHP2 catalytic activity can be measured using a fluorogenic artificial substrate DiFMUP.
The phosphatase reactions were carried out at room temperature in 384-well black polystyrene plates (Greiner Bio-One, Cat #784076) using assay buffers containing 60 mM HEPES, pH 7.2, 75 mM NaCl, 75 mM KCl, 1 mM EDTA, 0.05% P-20, and 5 mM DTT.
0.33 nM of SHP2 was co-incubated with of 0.5 μM of bisphos-IRS 1 peptide (sequence: H2N-LN(pY)IDLDLV(dPEG8)LST(pY)ASINFQK-amide) and various concentrations of compounds for 30-60 min at room temperature. Then the reaction was initiated by addition of the surrogate substrate DiFMUP (Invitrogen, Cat #D6567, 100 uM final).
The real-time conversion of DiFMUP to DiFMU (6,8-difluoro-7-hydroxyl-4-methyl-coumarin) was measured every 5 min for 30 min using a microplate reader (CLARIOstar, BMG Labtech) with excitation and emission wavelengths of 340 nm and 450 nm, respectively. Initial reaction rates were determined by linear fitting of the data and the inhibitor dose response curves were analyzed using normalized IC50 regression curve fitting with control-based normalization.

Each structure is given as a SMILES string.

These results are taken from US10894797B2, “Fused tricyclic ring derivatives as SRC homology-2 phosphatase inhibitors” (Nikang Therapuetics, Inc., priority 2018, dated 2021).

Chain of SHP2 (Q06124 whole entry, the tested form may be a part): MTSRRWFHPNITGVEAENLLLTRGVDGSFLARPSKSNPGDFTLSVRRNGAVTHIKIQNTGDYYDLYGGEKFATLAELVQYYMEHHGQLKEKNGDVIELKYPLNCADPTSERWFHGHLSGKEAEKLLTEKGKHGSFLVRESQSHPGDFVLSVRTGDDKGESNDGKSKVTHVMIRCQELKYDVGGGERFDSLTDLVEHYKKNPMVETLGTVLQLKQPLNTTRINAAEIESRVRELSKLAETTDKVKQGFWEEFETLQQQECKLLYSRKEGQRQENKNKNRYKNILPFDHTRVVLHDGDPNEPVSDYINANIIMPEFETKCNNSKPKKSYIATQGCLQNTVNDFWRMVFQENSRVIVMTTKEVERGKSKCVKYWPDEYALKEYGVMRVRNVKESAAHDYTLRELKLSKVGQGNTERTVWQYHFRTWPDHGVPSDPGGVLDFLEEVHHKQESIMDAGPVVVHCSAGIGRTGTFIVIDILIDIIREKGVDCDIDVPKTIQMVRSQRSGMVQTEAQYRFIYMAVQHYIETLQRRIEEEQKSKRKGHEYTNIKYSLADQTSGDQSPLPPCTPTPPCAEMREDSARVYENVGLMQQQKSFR

In turn, `COCOC[C@H]1C[C@H]2COc3c(Sc4ncc(N5CCC6(CC5)Cc5ncccc5[C@H]6N)nc4N)ccnc3N2C1` [Compound 47, (S)-1′-(6-amino-5-(((6aS,8S)-8-((methoxymethoxy)methyl)-6a,7,8,9-tetrahydro-6H-pyrido[3,2-b]pyrrolo[1,2-d][1,4]oxazin-4-yl)thio)pyrazin-2-yl)-5,7-dihydrospiro[cyclopenta[b]pyridine-6,4′-piperidin]-5-amine] gave an IC50 of 8.4 nM. This lies in the single-digit nanomolar range.

In the case of `COCOC[C@@H]1C[C@H]2COc3c(Sc4cnc(N5CCC6(CC5)CO[C@@H](C)[C@H]6N)c(CO)n4)ccnc3N2C1` [Compound 50, (3-((3S,4S)-4-amino-3-methyl-2-oxa-8-azaspiro[4.5]decan-8-yl)-6-(((6aS,8R)-8-((methoxymethoxy)methyl)-6a,7,8,9-tetrahydro-6H-pyrido[3,2-b]pyrrolo[1,2-d][1,4]oxazin-4-yl)thio)pyrazin-2-yl)methanol], half-maximal inhibition (IC50) required 3.5 nM.

As to `COCOC[C@H]1C[C@H]2COc3c(Sc4cnc(N5CCC6(CC5)CO[C@@H](C)[C@H]6N)c(CO)n4)ccnc3N2C1` [Compound 31, (3-((3S,4S)-4-amino-3-methyl-2-oxa-8-azaspiro[4.5]decan-8-yl)-6-(((6aS,8S)-8-((methoxymethoxy)methyl)-6a,7,8,9-tetrahydro-6H-pyrido[3,2-b]pyrrolo[1,2-d][1,4]oxazin-4-yl)thio)pyrazin-2-yl)methanol], the 50% inhibitory concentration (IC50) was 4.2 nM.

For the compound `C[C@@H]1OCC2(CCN(c3ncc(Sc4cc(N)nc5c4OC[C@@H]4CCCN54)nc3CO)CC2)[C@@H]1N` [Compound 35, formic acid; (3-((3S,4S)-4-amino-3-methyl-2-oxa-8-azaspiro[4.5]decan-8-yl)-6-(((S)-2-amino-6a,7,8,9-tetrahydro-6H-pyrido[3,2-b]pyrrolo[1,2-d][1,4]oxazin-4-yl)thio)pyrazin-2-yl)methanol], inhibition was half-maximal at 18 nM (IC50).

The compound `C[C@@H]1OCC2(CCN(c3ncc(Sc4ccnc5c4OC[C@@H]4C[C@H](O[C@@H]6CCOC6)CN54)nc3CO)CC2)[C@@H]1N` [Compound 12, (3-((3S,4S)-4-amino-3-methyl-2-oxa-8-azaspiro[4.5]decan-8-yl)-6-(((6aS,8S)-8-(((R)-tetrahydrofuran-3-yl)oxy)-6a,7,8,9-tetrahydro-6H-pyrido[3,2-b]pyrrolo[1,2-d][1,4]oxazin-4-yl)thio)pyrazin-2-yl)methanol] had an IC50 of 12 nM.

`COC[C@@H]1C[C@H]2COc3c(Sc4cnc(N5CCC6(CC5)CO[C@@H](C)[C@H]6N)c(CO)n4)ccnc3N2C1` [Compound 30, (3-((3S,4S)-4-amino-3-methyl-2-oxa-8-azaspiro[4.5]decan-8-yl)-6-(((6aS,8R)-8-(methoxymethyl)-6a,7,8,9-tetrahydro-6H-pyrido[3,2-b]pyrrolo[1,2-d][1,4]oxazin-4-yl)thio)pyrazin-2-yl)methanol] registered an IC50 of 3.8 nM.

Turning to `C[C@@H]1OCC2(CCN(c3ncc(Sc4ccnc5c4OC[C@@H]4C[C@H](n6cccn6)CN54)nc3CO)CC2)[C@@H]1N` [Compound 24, (6-(((6aS,8S)-8-(1H-pyrazol-1-yl)-6a,7,8,9-tetrahydro-6H-pyrido[3,2-b]-pyrrolo[1,2-d][1,4]oxazin-4-yl)thio)-3-((3 S,4S)-4-amino-3-methyl-2-oxa-8-azaspiro[4.5]decan-8-yl)pyrazin-2-yl)methanol], half-maximal inhibition (IC50) was put at 10 nM.

In turn, `C[C@@H]1OCC2(CCN(c3ncc(Sc4ccnc5c4OC[C@@H]4C[C@H](OCC6CC6)CN54)nc3CO)CC2)[C@@H]1N` [Compound 16, (3-((3S,4S)-4-amino-3-methyl-2-oxa-8-azaspiro[4.5]decan-8-yl)-6-(((6aS,8S)-8-(cyclopropylmethoxy)-6a,7,8,9-tetrahydro-6H-pyrido[3,2-b]pyrrolo[1,2-d][1,4]oxazin-4-yl)thio)pyrazin-2-yl)methanol] had an IC50 of 3 nM. Compared with the last compound, the IC50 is about 3.3-fold lower.

In turn, `COCOC[C@H]1C[C@H]2COc3c(Sc4ncc(N5CCC6(CC5)CO[C@@H](C)[C@H]6N)nc4N)ccnc3N2C1` [Compound 44, (3S,4S)-8-(6-amino-5-(((6aS,8S)-8-((methoxymethoxy)methyl)-6a,7,8,9-tetrahydro-6H-pyrido[3,2-b]pyrrolo[1,2-d][1,4]oxazin-4-yl)thio)pyrazin-2-yl)-3-methyl-2-oxa-8-azaspiro[4.5]decan-4-amine] returned an IC50 of 5.9 nM.

In turn, `COCOC[C@H]1C[C@H]2COc3c(Sc4cnc(N5CCC6(CC5)Cc5ncccc5[C@H]6N)cn4)ccnc3N2C1` [Compound 46, (S)-1′-(5-(((6aS,8S)-8-((methoxymethoxy)methyl)-6a,7,8,9-tetrahydro-6H-pyrido[3,2-b]pyrrolo[1,2-d][1,4]oxazin-4-yl)thio)pyrazin-2-yl)-5,7-dihydrospiro[cyclopenta[b]pyridine-6,4′-piperidin]-5-amine] registered an IC50 of 3.9 nM.

`C[C@@H]1OCC2(CCN(c3ncc(Sc4ccnc5c4OC[C@@H]4CC6(CC6)CN54)nc3CO)CC2)[C@@H]1N` [Compound 17, (3-((3S,4S)-4-amino-3-methyl-2-oxa-8-azaspiro[4.5]decan-8-yl)-6-(((S)-6a′,7′-dihydro-6′H,9′H-spiro[cyclopropane-1,8′-pyrido[3,2-b]pyrrolo[1,2-d][1,4]oxazin]-4′-yl)thio)pyrazin-2-yl)methanol] registered a half-maximal inhibitory concentration (IC50) of 2 nM.

In turn, `C[C@@H]1OCC2(CCN(c3ncc(Sc4ccnc5c4OC[C@@H]4C[C@@H](F)CN54)nc3CO)CC2)[C@@H]1N` [Compound 4, (3-((3S,4S)-4-amino-3-methyl-2-oxa-8-azaspiro[4.5]decan-8-yl)-6-(((6aS,8R)-8-fluoro-6a,7,8,9-tetrahydro-6H-pyrido[3,2-b]pyrrolo[1,2-d][1,4]oxazin-4-yl)thio)pyrazin-2-yl)methanol] registered an IC50 of 5 nM.

`COCOC[C@@H]1C[C@@H]2COc3c(Sc4cnc(N5CCC6(CC5)CO[C@@H](C)[C@H]6N)c(CO)n4)ccnc3N2C1` [Compound 52, (3-((3S,4S)-4-amino-3-methyl-2-oxa-8-azaspiro[4.5]decan-8-yl)-6-(((6aR,8R)-8-((methoxymethoxy)methyl)-6a,7,8,9-tetrahydro-6H-pyrido[3,2-b]pyrrolo[1,2-d][1,4]oxazin-4-yl)thio)pyrazin-2-yl)methanol] displayed an IC50 of 3.7 nM.

On to `C[C@@H]1OCC2(CCN(c3ncc(Sc4ccnc5c4OC[C@@H]4C[C@H](OC(N)=O)CN54)nc3CO)CC2)[C@@H]1N` [Compound 22, (6aS,8S)-4-((5-((3S,4S)-4-amino-3-methyl-2-oxa-8-azaspiro[4.5]decan-8-yl)-6-(hydroxymethyl)pyrazin-2-yl)thio)-6a,7,8,9-tetrahydro-6H-pyrido[3,2-b]pyrrolo[1,2-d]-[1,4]oxazin-8-yl carbamate], for which half-maximal inhibition (IC50) was put at 6 nM. Compared with the last compound, the IC50 is about 1.6-fold higher.

Compound `C[C@@H]1OCC2(CCN(c3ncc(Sc4ccnc5c4OC[C@H]4CCCN54)nc3CO)CC2)[C@@H]1N` [Compound 2, (3-((3S,4S)-4-amino-3-methyl-2-oxa-8-azaspiro[4.5]decan-8-yl)-6-(((R)-6a,7,8,9-tetrahydro-6H-pyrido[3,2-b]pyrrolo[1,2-d][1,4]oxazin-4-yl)thio)pyrazin-2-yl)methanol] came in with a 50% inhibitory concentration (IC50) of 4 nM.

Turning to `C[C@@H]1OCC2(CCN(c3ncc(Sc4ccnc5c4OCC4CS(=O)(=O)CCN54)nc3CO)CC2)[C@@H]1N` (stereo partly drawn) [Compound 28, 4-((5-((3S,4S)-4-amino-3-methyl-2-oxa-8-azaspiro[4.5]decan-8-yl)-6-(hydroxymethyl)pyrazin-2-yl)thio)-6a,7,9,10-tetrahydro-6H-pyrido[3,2-b][1,4]thiazino[4,3-d][1,4]oxazine 8,8-dioxide], half-maximal inhibition (IC50) was put at 13 nM.

`COC[C@@H]1C[C@H]2COc3c(Sc4cnc(N5CCC6(CC5)Cc5ncccc5[C@H]6N)c(CO)n4)ccnc3N2C1` [Compound 37, (3-((S)-5-amino-5,7-dihydrospiro[cyclopenta[b]pyridine-6,4′-piperidin]-1′-yl)-6-(((6aS,8R)-8-(methoxymethyl)-6a,7,8,9-tetrahydro-6H-pyrido[3,2-b]pyrrolo[1,2-d][1,4]oxazin-4-yl)thio)pyrazin-2-yl)methanol]: the “Shp2 IC50(nM)” value was “One of 36 and 37 is 2.7 and the other is 4.2”.

The compound `C[C@@H]1OCC2(CCN(c3ncc(Sc4ccnc5c4OC[C@@H]4C[C@@H](OC(N)=O)CN54)nc3CO)CC2)[C@@H]1N` [Compound 23, (6aS,8R)-4-((5-((3 S,4S)-4-amino-3-methyl-2-oxa-8-azaspiro[4.5]decan-8-yl)-6-(hydroxymethyl)pyrazin-2-yl)thio)-6a,7,8,9-tetrahydro-6H-pyrido[3,2-b]pyrrolo[1,2-d][1,4]oxazin-8-yl Carbamate] returned an IC50 of 8 nM.

For `CO[C@@H]1C[C@@H]2COc3c(Sc4cnc(N5CCC6(CC5)CO[C@@H](C)[C@H]6N)c(CO)n4)ccnc3N2C1` [Compound 9, (3-((3S,4S)-4-amino-3-methyl-2-oxa-8-azaspiro[4.5]decan-8-yl)-6-(((6aR,8R)-8-methoxy-6a,7,8,9-tetrahydro-6H-pyrido[3,2-b]pyrrolo[1,2-d][1,4]oxazin-4-yl)thio)pyrazin-2-yl)methanol], the midpoint of inhibition, the IC50, lay at 8 nM.

A word on the IC50: it is the concentration that inhibits the measured activity by half. Lower therefore signals inhibition by little substance.
